Experimental findings from US8293781B2, “Indole derivatives having cPLA2 inhibiting activity and applications and production methods of the same” (Daiichi Sankyo Company, Limited, priority 2007, dated 2012) are described below.

Counter-ions that a name gives are not always drawn.

The target in test [1] is T1, cPLA2 crudely purified from the cytoplasm fraction of U937 (Homo sapiens, UniProt P47712).
T1 construct: cPLA2 crudely purified from the cytoplasm fraction of U937; endogenous in cells; host or cells: U937 cells (cytoplasm fraction, crude purification)
T1 sequence (P47712 1-749): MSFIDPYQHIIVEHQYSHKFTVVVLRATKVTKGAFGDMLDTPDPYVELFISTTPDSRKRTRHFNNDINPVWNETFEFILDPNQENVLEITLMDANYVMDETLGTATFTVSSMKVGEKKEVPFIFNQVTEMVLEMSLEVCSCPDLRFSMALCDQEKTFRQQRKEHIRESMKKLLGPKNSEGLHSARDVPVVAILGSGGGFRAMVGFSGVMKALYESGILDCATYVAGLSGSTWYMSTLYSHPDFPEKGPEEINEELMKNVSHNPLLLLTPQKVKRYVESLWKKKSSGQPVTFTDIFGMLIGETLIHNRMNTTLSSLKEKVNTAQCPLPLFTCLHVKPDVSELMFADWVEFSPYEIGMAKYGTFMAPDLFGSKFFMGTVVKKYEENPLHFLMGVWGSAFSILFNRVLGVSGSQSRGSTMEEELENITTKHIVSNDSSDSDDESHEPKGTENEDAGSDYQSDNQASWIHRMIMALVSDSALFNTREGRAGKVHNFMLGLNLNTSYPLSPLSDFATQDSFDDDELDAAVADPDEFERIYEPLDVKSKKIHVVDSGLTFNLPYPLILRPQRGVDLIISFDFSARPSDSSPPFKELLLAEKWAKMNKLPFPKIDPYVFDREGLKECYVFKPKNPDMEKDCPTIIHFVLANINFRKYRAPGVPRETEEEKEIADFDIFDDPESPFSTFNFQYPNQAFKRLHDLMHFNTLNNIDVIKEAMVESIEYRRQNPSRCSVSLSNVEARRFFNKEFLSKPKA
Put plainly: Measurement of cPLA2 inhibitory activity (release of [14C]-arachidonic acid from phosphatidyl choline liposome). It is filed as biochemical. The note with it: cPLA2 from U937 cytoplasm fraction, [14C]arachidonyl-phosphatidyl choline liposome, 37° C., 60 minutes; read-out: cPLA2 inhibitory activity, 50% inhibiting concentration IC50. An outline of the steps:
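The read-out is radioactivity from extracted [14C]-arachidonic acid, freed over 60 min at 37° C from liposomes of 14C-arachidonyl phosphatidylcholine (10 μM PC in the added solution). Buffer was 50 mM HEPES pH 7.5 with Ca2+, DTT, NaCl and BSA. IC50 was derived from inhibition relative to enzyme control minus no-enzyme control.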

In test [2] the test system is LTB4 production in rat mast cell like cell line RBL-2H3. Put plainly: Calcium ionophore-induced LTB4 production system using RBL-2H3. Format: cell-based. To be noted: 1 h, RBL-2H3, A23187 5 μM, one hour. As for the experimental part:
For the evaluation by LTB4 and Cys-LTs production inhibiting activity, the calcium ionophore-induced LTB4 and Cys-LTs production system using the rat mast cell like cell line RBL-2H3 with reference to the method of Ishiwara et al. (see Ishiwara M. et al., J Pharmacol Exp Ther 307: 583, 2003) was used. That is, rat mast cell like cell line RBL-2H3 cells were suspended in Dulbecco's modified Eagle's medium (Nacalai Tesque) containing 10% bovine fetal serum (BioWhittaker) and 10 μg/ml gentamycin (Invitrogen). The infiltrating cell suspension 200 μl containing 1×10^5 cells per well was inoculated to 96-well culture plate and cultured over night under conditions of 5% CO2 and 37° C. The culture supernatant was removed, then the test compound solution or solvent 50 μl was added. After 30 minutes preculture, calcium ionophore (A23187) was added to a final concentration of 5 μM to induce leukotriene production.
One hour after calcium ionophore stimulus, the culture supernatant was recovered and the amounts of LTB4 and Cys-LTs in the supernatant were measured using an EIA kit (made by Amersham). Based on the measurement values, the test compound concentrations suppressing 50% of the mediator production at the time of non-addition of a compound (IC50 value) were calculated.

For test [3], the system named is TPA-induced mouse dermatitis model. Put plainly: TPA-induced mouse dermatitis model (ear thickness). Format: in vivo. To be noted: 50 mg/kg orally 30 minutes before TPA, 6 hours after TPA, C57BL/6 mice. As for the experimental part: Phorbol ester (TPA) was applied to the ear to elicite acute inflammation having ear edema as a main symptom. In the present test model, it is known that arachidonic acid metabolites, constituting various lipid mediators, are involved in inflammation. By this Experiment, it is possible to evaluate the anti-inflammatory action in vivo of anti-inflammatory drugs acting on the arachidonic acid cascade.
The Experiment was performed with reference to the method of Chang et al. (see Chang J., Eur J Pharmacol 142: 197, 1987). That is, the ear of female C57BL/6 mice (Charles River Japan) were painted with 20 μl of TPA in an acetone solution (concentration 50 μg/ml) to induce dermatitis at the ear. The ear thicknesses before application of TPA and 6 hours after application of TPA were measured using a dial gauge and the increase in ear thickness caused by inflammation was calculated. The test compound or the 0.5% hydroxypropyl cellulose solution as vehicle was administered orally to the mice 30 minutes before application of TPA. Note that the number of mice used in the test was made six per group.
Based on the measurement value, the action of each test compound in suppressing the increase in ear thickness due to application of TPA was evaluated.

For `O=C(O)CCc1ccc2c(c1)c(CCc1ccccc1)cn2-c1ccc(O)cc1` [Example 126, 3-[1-(4-hydroxyphenyl)-3-(2-phenylethyl)-1H-indol-5-yl]propanoic acid], the IC50 in test [1] came to 11 nM; in test [2], 770 nM. Further, in test [3], the “Suppression rate of increase in ear thickness” value (shortened to “Suppression rate of increase”) stood at 27.6%.
In the same order, the values of `O=C(O)CCc1ccc2c(c1)c(CCc1ccccc1)cn2-c1ccc(F)cc1` [Example 187, 3-[1-(4-fluorophenyl)-3-(2-phenylethyl)-1H-indol-5-yl]propanoic acid] are 58 nM, 260 nM and 25.4%.
Regarding `O=C(O)CCc1ccc2c(c1)c(CCc1ccccc1)cn2-c1ccc(OC(F)F)cc1` [Example 190, 3-{1-[4-(difluoromethoxy)phenyl]-3-(2-phenylethyl)-1H-indol-5-yl}propanoic acid 2-amino-2-(hydroxymethyl)propane-1,3-diol salt (1:1)], the values for the IC50 in test [1] and in test [2] were 28 nM and 380 nM, respectively. Besides, the “Suppression rate of increase” value in test [3] is given as 27.6%.
On the same counts, the results for `COCc1ccc(-n2cc(CCc3ccccc3)c3cc(CCC(=O)O)ccc32)cc1` [Example 217, 3-{1-[4-(methoxymethyl)phenyl]-3-(2-phenylethyl)-1H-indol-5-yl}propanoic acid 2-amino-2-(hydroxymethyl)propane-1,3-diol salt (1:1)] are 47 nM, 500 nM and 22.8%.
Turning to `O=C(O)CCc1ccc2c(c1)c(CCc1ccccc1)cn2-c1ccc(OCCO)cc1` [Example 229, 3-{1-[4-(2-hydroxyethoxy)phenyl]-3-(2-phenylethyl)-1H-indol-5-yl}propanoic acid 2-amino-2-(hydroxymethyl)propane-1,3-diol salt (1:1)], the figures for the IC50 in test [1] and in test [2] were 14 nM and 20 nM, respectively. Besides, in test [3], the “Suppression rate of increase” value amounted to 23.9%.
In the same order, the values of `O=C(O)CCc1ccc2c(c1)c(CCc1ccccc1)cn2-c1ccc(Oc2ccccc2)cc1` [Example 231, 3-[1-(4-phenoxyphenyl)-3-(2-phenylethyl)-1H-indol-5-yl]propanoic acid 2-amino-2-(hydroxymethyl)propane-1,3-diol salt (1:1)] are 20 nM, 180 nM and 30.4%.
